US4208520A, “7-(Substituted)-7H-pyrrolo[3,2-f]quinazoline-1,3-diamines” (American Home Products Corporation, priority 1978, dated 1980)
Converted amounts (≈) assume the structure as drawn. Like-named read-outs stand apart in the source and are kept apart here.

Experiments:
[1] = system: S. paratyphi 11737; assay: In vitro antibacterial activity (minimal inhibitory concentration, agar dilution); assay type: cell-based; settings: Salmonella enterica, Wellcotest Sensitivity Test Agar with 5% hemolyzed horse blood, 18 hours at 35° C.
Experimental: (§1) The compounds have shown activity in vitro against one or more of the following strains of bacteria: S. aureus Smith, S. aureus 53-180, N. catarrhalis 8193, E. coli 9637, S. paratyphi 11737, K. pneumoniae 10031, or P. vulgaris 6896.
(§2) A stock solution or suspension of the test compound at a concentration of 2500 μg/ml. is prepared utilizing a suitable solvent or medium such as aqueous sodium hydroxide, aqueous lactic acid, methyl cellosolve, dimethylsulfoxide, dimethylacetamide, ethylene glycol, dimethylformamide, formamide, propylene glycol, acetone or methanol. Two-fold dilutions are made by adding appropriate amounts of sterile water to the solution or suspension of the test substance. One ml. quantities of each dilution are incorporated into Wellcotest Sensitivity Test Agar fortified with 5% hemolyzed horse blood (9 ml. vol.) in sterile Petri dishes to give plates containing varying concentrations of the test compound. The hardened surfaces of each plate are incubated with the test organism, and the plates are incubated for 18 hours at 35° C.

[2] = system: S. aureus 53-180; assay: as above; assay type: cell-based
Experimental: as §1, §2

[3] = system: N. catarrhalis 8193; assay: as above; assay type: cell-based; settings: Wellcotest Sensitivity Test Agar with 5% hemolyzed horse blood, 18 hours at 35° C.
Experimental: as §1, §2

[4] = system: K. pneumoniae 10031; assay: as above; assay type: cell-based
Experimental: as §1, §2

[5] = system: E. coli 9637; assay: as above; assay type: cell-based
Experimental: as §1, §2

[6] = system: S. aureus Smith; assay: as above; assay type: cell-based; settings: Staphylococcus aureus
Experimental: as §1, §2

[7] = system: P. vulgaris 6896; assay: as above; assay type: cell-based
Experimental: as §1, §2

[8] = system: Escherichia coli (E-2); assay: In vivo antibacterial synergism with sulfomethoxazole (mouse protection test); settings: E. coli (E-2), CD-1 mice; for ED50: Escherichia coli, po, single dose, alone, treated immediately after infecting, read-out: PD50
Experimental: (§3) The test agent is weighed, suspended in 0.5% aqueous carboxymethyl cellulose, hemogenized (glass tissue grinder) and diluted according to the design of the experiment. Mice (male, 18±1 g., CD-1 strain) are pre-weighed, pooled, infected at random intraperitoneally with a 0.5 ml. standardized suspension (LD95 ±5%) of the bacterial organism in 5% gastric mucin and treated at random with single doses of the test agents either at the time of infection or six hours after infecting. The treated groups consist of ten mice per dosage level. Deaths are recorded daily for 14 days and the PD50 (mice are treated at time of infection) and CD50 (mice are treated six hours after infecting) values are calculated by the method of Reed and Muench [Amer. J. Hyg., 27, (1938)].

[9] = system: Escherichia coli (E-3); assay: as above; settings: E. coli (E-3), CD-1 mice; for ED50: Escherichia coli, po, single dose, alone, treated immediately after infecting, read-out: PD50
Experimental: as §3

[10] = system: Staphylococcus aureus CHP; assay: as above; settings: CD-1 mice; for ED50: po, single dose, alone, treated immediately after infecting, read-out: PD50
Experimental: as §3

[11] = system: bacterial infections; assay: Potentiation of sulfa drug against bacterial infections in mice, oral; assay type: in vivo, mouse; settings: oral route of administration in mice
Experimental: The invention also provides compounds which will potentiate the antibacterial effects of sulfa drugs.
as §3

[12] = Staphylococcus aureus, 53180, 18 h
[13] = Klebsiella pneumoniae, 10031, 18 h
[14] = Escherichia coli, E. coli 9637, Wellcotest Sensitivity Test Agar with 5% hemolyzed horse blood, 18 hours at 35° C., read-out: MIC
[15] = Staphylococcus aureus, 53180, S. aureus 53-180, Wellcotest Sensitivity Test Agar with 5% hemolyzed horse blood, 18 hours at 35° C., read-out: MIC
[16] = Proteus vulgaris, P. vulgaris 6896, Wellcotest Sensitivity Test Agar with 5% hemolyzed horse blood, 18 hours at 35° C., read-out: MIC
[17] = Klebsiella pneumoniae, K. pneumoniae 10031, Wellcotest Sensitivity Test Agar with 5% hemolyzed horse blood, 18 hours at 35° C., read-out: MIC
[18] = S. aureus Smith, Wellcotest Sensitivity Test Agar with 5% hemolyzed horse blood, 18 hours at 35° C., read-out: MIC
[19] = p.o., Cpd. dose in combination with SM
[20] = p.o., SM dose in combination with Cpd.

Row | SMILES | MIC [1] [µg/mL] | MIC [2, 12] [µg/mL] | MIC [3] [µg/mL] | MIC [5, 14] [µg/mL] | MIC ([6]; 18 h) [µg/mL] | MIC [2, 15] [µg/mL] | MIC [7, 16] [µg/mL] | MIC [4, 17] [µg/mL] | MIC [6, 18] [µg/mL] | also measured
1 | Nc1nc(N)c2c(ccc3c2ccn3Cc2ccc(Cl)cc2Cl)n1 [Example 2, 7-[(2,4-Dichlorophenyl)methyl]-7H-pyrrolo[3,2-f]quinazoline-1,3-diamine] | 31.3 (≈ 87.4 µM) | 0.488 (≈ 1.36 µM) | 0.0038 (≈ 0.0106 µM) | 3.9 (≈ 10.9 µM) | 0.976 (≈ 2.72 µM) | – | – | – | – | MIC [4, 13]: 0.488 µg/mL (≈ 1.36 µM)
2 | CC(=O)c1cccc(Cn2ccc3c4c(N)nc(N)nc4ccc32)c1 [Example 3] | 0.976 (≈ 2.95 µM) | – | – | 0.244 (≈ 0.736 µM) | – | 0.061 (≈ 0.184 µM) | 3.9 (≈ 11.8 µM) | 0.031 (≈ 0.0935 µM) | 0.122 (≈ 0.368 µM) | –
3 | COC(=O)c1cccc(Cn2ccc3c4c(N)nc(N)nc4ccc32)c1 [Example 4] | 31.3 (≈ 90.1 µM) | – | – | 1.95 (≈ 5.61 µM) | 0.976 (≈ 2.81 µM) | 0.122 (≈ 0.351 µM) | 125 (≈ 360 µM) | 0.244 (≈ 0.702 µM) | – | –
4 | CC(C)OC(=O)c1ccc(Cn2ccc3c4c(N)nc(N)nc4ccc32)cc1 [Example 6] | 62.5 (≈ 166 µM) | 0.488 (≈ 1.3 µM) | 0.122 (≈ 0.325 µM) | 15.6 (≈ 41.6 µM) | 0.488 (≈ 1.3 µM) | – | 125 (≈ 333 µM) | – | – | MIC [4, 13]: 0.488 µg/mL (≈ 1.3 µM)
5 | CCCC(C)OC(=O)c1ccc(Cn2ccc3c4c(N)nc(N)nc4ccc32)cc1 (stereo not drawn) [Example 7] | – | – | 7.81 (≈ 19.4 µM) | – | – | 7.81 (≈ 19.4 µM) | – | 15.6 (≈ 38.7 µM) | 15.6 (≈ 38.7 µM) | –
6 | COC(=O)c1ccc(Cn2ccc3c4c(N)nc(N)nc4ccc32)cc1 [Example 8] | 250 (≈ 720 µM) | 7.81 (≈ 22.5 µM) | – | – | 31.3 (≈ 90.1 µM) | – | – | 15.6 (≈ 44.9 µM) | – | MIC ([7]; Proteus vulgaris, 6896, 18 h): 250 µg/mL (≈ 720 µM); MIC ([5]; Escherichia coli, 9637, 18 h): 62.5 µg/mL (≈ 180 µM)
7 | Nc1nc(N)c2c(ccc3c2ccn3Cc2ccc(O)cc2)n1 [Example 9, 7-[(4-Hydroxyphenyl)methyl]-7H-pyrrolo[3,2-f]quinazoline-1,3-diamine] | 3.9 (≈ 12.8 µM) | 0.488 (≈ 1.6 µM) | – | – | 0.488 (≈ 1.6 µM) | – | – | 0.244 (≈ 0.799 µM) | – | MIC ([7]; Proteus vulgaris, 6896, 18 h): 250 µg/mL (≈ 819 µM); MIC ([5]; Escherichia coli, 9637, 18 h): 0.976 µg/mL (≈ 3.2 µM)
8 | Nc1nc(N)c2c(ccc3c2ccn3-c2ccncc2)n1 [Example 10, 7-(4-Pyridinyl)-7H-pyrrolo-[3,2-f]quinazoline-1,3-diamine] | 0.976 (≈ 3.53 µM) | – | 0.0152 (≈ 0.055 µM) | 0.244 (≈ 0.883 µM) | – | 0.224 (≈ 0.811 µM) | – | – | 0.448 (≈ 1.62 µM) | MIC ([7]; Proteus vulgaris, 6896, 18 h): 62.5 µg/mL (≈ 226 µM); MIC [4, 13]: 0.976 µg/mL (≈ 3.53 µM); ED50 [8]: > 400 mg/kg; PD50 of Cpd. in combination SM/Cpd. [8, 19]: 1.20 mg. per kg.; ED50 [9]: 313 mg/kg; PD50 of Cpd. in combination SM/Cpd. [9, 19]: 6.25 mg. per kg.; PD50 of Cpd. in combination SM/Cpd. [10, 19]: 7.28 mg. per kg.; ED50 [10]: > 400 mg/kg; synergistic effect with sulfamethoxazole against bacterial infections [11]: gave a synergistic effect with sulfamethoxazole against bacterial infections
9 | Cc1ccnc(-n2ccc3c4c(N)nc(N)nc4ccc32)c1 [Example 11] | 7.81 (≈ 26.9 µM) | 0.976 (≈ 3.36 µM) | 0.0152 (≈ 0.0524 µM) | 3.9 (≈ 13.4 µM) | 3.9 (≈ 13.4 µM) | – | 15.6 (≈ 53.7 µM) | 0.244 (≈ 0.84 µM) | – | –
10 | Nc1nc(N)c2c(ccc3c2ccn3-c2ccc(C(F)(F)F)cc2)n1 [Example 12] | – | 31.3 (≈ 91.2 µM) | – | – | 31.3 (≈ 91.2 µM) | – | – | 3.9 (≈ 11.4 µM) | – | MIC ([5]; Escherichia coli, 9637, 18 h): 250 µg/mL (≈ 728 µM)
11 | NC(=O)c1ccc(-n2ccc3c4c(N)nc(N)nc4ccc32)cc1 [Example 13] | – | 7.81 (≈ 24.5 µM) | – | – | – | – | – | 0.976 (≈ 3.07 µM) | 1.95 (≈ 6.13 µM) | –
12 | Cc1cc(NS(=O)(=O)c2ccc(N)cc2)no1 [SM, sulfomethoxazole, reference compound] | – | – | – | – | – | – | – | – | – | ED50 [8]: 25 mg/kg; PD50 of SM in combination SM/Cpd. [8, 20]: 5.25 mg. per kg.; ED50 [9]: 28.1 mg/kg; PD50 of SM in combination SM/Cpd. [9, 20]: 12.5 mg. per kg.; PD50 of SM in combination SM/Cpd. [10, 20]: 50 mg. per kg.; ED50 [10]: 259 mg/kg
